We go through three compounds from US8105845B2, “System and method for carrying out multiple binding reactions in an array format” (Bio-Rad Haifa Ltd., priority 2003, dated 2012).

The target in assay [1] is Cytochrome-P450 (CYP) 2C19 (Homo sapiens, UniProt P33261). Description: biochemical.
The target in assay [2] is Cytochrome-P450 (CYP) 2D6 (Homo sapiens, UniProt P10635). The experiment in a line: biochemical.
Assay [3] concerns the target Cytochrome-P450 (CYP) 2C9 (Homo sapiens, UniProt P11712). Description: SPR array binding of compound targets to immobilized CYP450 enzyme probes.
Assay [4] concerns the target T1, Cytochrome-P450 (CYP) 1A2 (Homo sapiens, UniProt P05177).
T1 sequence (P05177 1-516): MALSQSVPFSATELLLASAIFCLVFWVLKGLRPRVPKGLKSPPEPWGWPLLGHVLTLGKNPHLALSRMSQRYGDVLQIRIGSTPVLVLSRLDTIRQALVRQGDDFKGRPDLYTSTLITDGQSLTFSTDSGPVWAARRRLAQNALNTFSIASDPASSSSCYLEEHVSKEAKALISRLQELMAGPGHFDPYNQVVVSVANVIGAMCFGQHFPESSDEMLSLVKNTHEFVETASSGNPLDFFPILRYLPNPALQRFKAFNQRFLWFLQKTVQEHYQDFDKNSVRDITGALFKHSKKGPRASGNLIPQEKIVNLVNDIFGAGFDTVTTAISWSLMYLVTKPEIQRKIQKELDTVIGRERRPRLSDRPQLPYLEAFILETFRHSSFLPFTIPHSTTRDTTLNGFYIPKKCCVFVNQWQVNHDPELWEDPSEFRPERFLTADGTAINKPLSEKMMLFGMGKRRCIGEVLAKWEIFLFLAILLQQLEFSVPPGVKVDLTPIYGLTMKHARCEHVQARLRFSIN
Description: biochemical.

Chain of Cytochrome-P450 (CYP) 2C19 (P33261 whole entry): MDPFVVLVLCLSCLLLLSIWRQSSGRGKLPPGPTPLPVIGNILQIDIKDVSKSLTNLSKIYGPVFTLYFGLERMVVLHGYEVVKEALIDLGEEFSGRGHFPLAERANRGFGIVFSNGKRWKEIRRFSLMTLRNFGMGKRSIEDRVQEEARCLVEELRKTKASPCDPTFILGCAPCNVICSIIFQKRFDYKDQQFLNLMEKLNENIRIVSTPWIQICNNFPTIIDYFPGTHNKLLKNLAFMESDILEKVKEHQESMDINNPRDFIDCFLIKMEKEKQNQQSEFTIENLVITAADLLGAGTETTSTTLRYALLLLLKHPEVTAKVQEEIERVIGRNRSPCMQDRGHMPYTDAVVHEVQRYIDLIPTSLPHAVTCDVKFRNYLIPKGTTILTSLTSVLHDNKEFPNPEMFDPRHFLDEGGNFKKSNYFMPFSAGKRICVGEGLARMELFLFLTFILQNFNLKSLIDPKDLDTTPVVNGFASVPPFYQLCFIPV
Chain of Cytochrome-P450 (CYP) 2C9 (P11712 whole entry): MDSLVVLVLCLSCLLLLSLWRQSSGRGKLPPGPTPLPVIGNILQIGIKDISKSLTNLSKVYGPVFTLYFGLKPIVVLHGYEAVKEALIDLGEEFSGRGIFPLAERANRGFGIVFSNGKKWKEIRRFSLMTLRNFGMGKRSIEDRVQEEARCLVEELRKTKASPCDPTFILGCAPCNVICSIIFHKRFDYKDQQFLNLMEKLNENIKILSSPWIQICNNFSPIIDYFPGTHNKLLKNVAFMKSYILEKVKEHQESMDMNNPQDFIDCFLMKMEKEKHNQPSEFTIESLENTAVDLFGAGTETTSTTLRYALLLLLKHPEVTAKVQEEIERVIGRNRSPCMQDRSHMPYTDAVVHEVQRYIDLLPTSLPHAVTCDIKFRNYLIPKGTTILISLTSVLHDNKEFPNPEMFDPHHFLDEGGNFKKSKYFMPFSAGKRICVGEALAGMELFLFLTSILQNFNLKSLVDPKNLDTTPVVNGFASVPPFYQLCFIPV
Chain of Cytochrome-P450 (CYP) 2D6 (P10635 whole entry): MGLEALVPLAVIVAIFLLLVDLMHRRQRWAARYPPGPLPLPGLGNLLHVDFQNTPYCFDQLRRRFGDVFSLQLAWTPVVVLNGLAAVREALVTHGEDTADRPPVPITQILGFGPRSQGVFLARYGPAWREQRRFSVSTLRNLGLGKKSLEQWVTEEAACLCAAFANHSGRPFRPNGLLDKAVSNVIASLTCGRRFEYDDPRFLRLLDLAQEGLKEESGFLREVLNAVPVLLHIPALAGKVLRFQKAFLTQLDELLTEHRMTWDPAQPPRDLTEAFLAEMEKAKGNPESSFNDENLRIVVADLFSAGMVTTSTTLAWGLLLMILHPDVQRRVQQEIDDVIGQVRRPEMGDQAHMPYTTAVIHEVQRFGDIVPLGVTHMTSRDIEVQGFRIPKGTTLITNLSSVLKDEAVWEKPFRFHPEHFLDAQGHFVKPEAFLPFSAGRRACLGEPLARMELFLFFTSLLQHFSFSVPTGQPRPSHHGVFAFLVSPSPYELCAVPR

For `COc1ccc2c(c1)[C@]13CCCC[C@@H]1[C@H](C2)N(C)CC3` [Dexomethorphan], the equilibrium dissociation constant (Kd) came to 7.9 mM in assay [1], 60.4 mM in assay [2] and 28.3 mM in assay [3].

For `O=C(O)Cc1ccccc1Nc1c(Cl)cccc1Cl` [Diclofenac], the Kd in assay [1] turned out to be 0.717 mM; in assay [4], 14.2 mM; in assay [2], 0.681 mM.

In the case of `CC(C)NCC(O)COc1cccc2ccccc12` (stereo not drawn) [Propranolol], the Kd in assay [1] is 6.59 mM; in assay [4], 0.873 mM; in assay [3] it was 5.13 mM.
